Measured values: patent publication US10442835B2, “Water-soluble rapamycin derivatives” (Zhejiang Hisun Pharmaceutical Co., Ltd., priority 2016, dated 2019)

Key:
[1] = Drug release in serum by prodrugs; format: in vitro ADME, rat; conditions: 37° C.; HPLC at 10 min to 4 h
Protocol: The effects of the compounds according to the present invention as prodrugs of rapamycin can be confirmed by standard operational procedures of pharmacological experiments.
10 mL ZnCl2 solution with a concentration of 0.10 mol/L was prepared for use.
1.5 mL blood from ophthalmic artery of rats was injected into a 1.5 mL centrifuge tube and was centrifuged at 12000 rad/min for 10 min. 300 μl supernate (serum) was pipetted into a 1.5 mL centrifuge tube. 7 samples of the serum were prepared for use with the same method.
As a blank control, 100 μl water was added to centrifuge tube No. 7. Then the tubes were incubated at 37° C. in an incubator.
300 μl acetonitrile and 300 μl ZnCl2 solution of 0.1 mol/L were added to each of centrifuge tubes No. 1-6 at 10 min, 0.5 h, 1 h, 2 h, 3 h, and 4 h, respectively. The tubes were vortexed homogeneously for 5 min, so as to end the action of the enzyme in the serum on the compounds. 300 μl acetonitrile and 300 μl ZnCl2 solution of 0.1 M were added to the centrifuge tube No. 7 at 4 h, which was then vortexed homogeneously for 5 min.
Each of the centrifuge tubes No. 1-7 was centrifuged at 12000 rad/min for 15 min. The protein in the serum was removed via centrifuging.

[2] = Body weight of OS-RC-2 tumor nude mice
Protocol: The experiment was terminated and tumors were stripped and weighted. The tumor inhibition rate was calculated.
The body weight can indirectly reflect the toxicity of the drugs.

[3] = Day 5, G4 compound I-1 8.12 mg/kg ig 3×/qw
[4] = Day 5, G5 compound I-1 2.0 mg/kg iv 3×/qw
[5] = Day 5, G6 compound I-1 8.12 mg/kg iv 3×/qw
[6] = Day 5, G7 compound I-1 32.7 mg/kg iv 1×/qw
[7] = Day 8, G4 compound I-1 8.12 mg/kg ig 3×/qw
[8] = Day 8, G5 compound I-1 2.0 mg/kg iv 3×/qw
[9] = Day 8, G6 compound I-1 8.12 mg/kg iv 3×/qw
[10] = Day 8, G7 compound I-1 32.7 mg/kg iv 1×/qw
[11] = Day 12, G4 compound I-1 8.12 mg/kg ig 3×/qw
[12] = Day 12, G5 compound I-1 2.0 mg/kg iv 3×/qw
[13] = Day 12, G6 compound I-1 8.12 mg/kg iv 3×/qw
[14] = Day 12, G7 compound I-1 32.7 mg/kg iv 1×/qw
[15] = Day 15, G4 compound I-1 8.12 mg/kg ig 3×/qw
[16] = Day 15, G5 compound I-1 2.0 mg/kg iv 3×/qw
[17] = Day 15, G6 compound I-1 8.12 mg/kg iv 3×/qw
[18] = Day 15, G7 compound I-1 32.7 mg/kg iv 1×/qw
[19] = Day 19, G4 compound I-1 8.12 mg/kg ig 3×/qw
[20] = Day 19, G5 compound I-1 2.0 mg/kg iv 3×/qw
[21] = Day 19, G6 compound I-1 8.12 mg/kg iv 3×/qw
[22] = Day 19, G7 compound I-1 32.7 mg/kg iv 1×/qw
[23] = Day 22, G4 compound I-1 8.12 mg/kg ig 3×/qw
[24] = Day 22, G5 compound I-1 2.0 mg/kg iv 3×/qw
[25] = Day 22, G6 compound I-1 8.12 mg/kg iv 3×/qw
[26] = Day 22, G7 compound I-1 32.7 mg/kg iv 1×/qw
[27] = Day 26, G4 compound I-1 8.12 mg/kg ig 3×/qw
[28] = Day 26, G5 compound I-1 2.0 mg/kg iv 3×/qw
[29] = Day 26, G6 compound I-1 8.12 mg/kg iv 3×/qw
[30] = Day 26, G7 compound I-1 32.7 mg/kg iv 1×/qw
[31] = Day 29, G4 compound I-1 8.12 mg/kg ig 3×/qw
[32] = Day 29, G5 compound I-1 2.0 mg/kg iv 3×/qw
[33] = Day 29, G6 compound I-1 8.12 mg/kg iv 3×/qw
[34] = Day 29, G7 compound I-1 32.7 mg/kg iv 1×/qw
[35] = Day 32, G4 compound I-1 8.12 mg/kg ig 3×/qw
[36] = Day 32, G5 compound I-1 2.0 mg/kg iv 3×/qw
[37] = Day 32, G6 compound I-1 8.12 mg/kg iv 3×/qw
[38] = Day 32, G7 compound I-1 32.7 mg/kg iv 1×/qw

Q: Which results are given for `CO[C@H]1C[C@@H]2CC[C@@H](C)[C@@](O)(O2)C(=O)C(=O)N2CCCC[C@H]2C(=O)OC([C@H](C)C[C@@H]2CC[C@@H](OCCOC(=O)CSC[C@H](NC(=O)CC[C@H](N)C(=O)O)C(=O)NCC(=O)O)[C@H](OC)C2)CC(=O)[C@H](C)/C=C(\C)[C@@H](O)[C@@H](OC)C(=O)[C@H](C)C[C@@H](C)\C=C/C=C/C=C/1C` (stereo partly drawn) [Compound I-1]?
A: release of everolimus in rat's serum [1]: slowly release everolimus; Body Weight, mean value ([2]; Day 1, G4 compound I-1 8.12 mg/kg ig 3×/qw): 21.04 g; Body Weight, mean value ([2]; Day 1, G5 compound I-1 2.0 mg/kg iv 3×/qw): 20.67 g; Body Weight, mean value ([2]; Day 1, G6 compound I-1 8.12 mg/kg iv 3×/qw): 21.39 g; Body Weight, mean value ([2]; Day 1, G7 compound I-1 32.7 mg/kg iv 1×/qw): 21.28 g; Body Weight, mean value [2, 3]: 20.27 g; Decrease rate of body weight [2, 3]: 3.7%; Body Weight, mean value [2, 4]: 19.27 g; Decrease rate of body weight [2, 4]: 6.8%; Body Weight, mean value [2, 5]: 20.46 g; Decrease rate of body weight [2, 5]: 4.4%; Body Weight, mean value [2, 6]: 19.97 g; Decrease rate of body weight [2, 6]: 6.2%; Body Weight, mean value [2, 7]: 20.04 g; Decrease rate of body weight [2, 7]: 4.8%; Body Weight, mean value [2, 8]: 18.76 g; Decrease rate of body weight [2, 8]: 9.2%; Body Weight, mean value [2, 9]: 21.16 g; Decrease rate of body weight [2, 9]: 1.1%; Body Weight, mean value [2, 10]: 20.14 g; Decrease rate of body weight [2, 10]: 5.3%; Body Weight, mean value [2, 11]: 19.62 g; Decrease rate of body weight [2, 11]: 6.7%; Body Weight, mean value [2, 12]: 18.71 g; Decrease rate of body weight [2, 12]: 9.5%; Body Weight, mean value [2, 13]: 21.25 g; Decrease rate of body weight [2, 13]: 0.7%; Body Weight, mean value [2, 14]: 19.93 g; Decrease rate of body weight [2, 14]: 6.3%; Body Weight, mean value [2, 15]: 19.29 g; Decrease rate of body weight [2, 15]: 8.3%; Body Weight, mean value [2, 16]: 18.18 g; Decrease rate of body weight [2, 16]: 12.0%; Body Weight, mean value [2, 17]: 20.71 g; Decrease rate of body weight [2, 17]: 3.2%; Body Weight, mean value [2, 18]: 19.38 g; Decrease rate of body weight [2, 18]: 8.9%; Body Weight, mean value [2, 19]: 19.19 g; Decrease rate of body weight [2, 19]: 8.8%; Body Weight, mean value [2, 20]: 18.30 g; Decrease rate of body weight [2, 20]: 11.5%; Body Weight, mean value [2, 21]: 19.67 g; Decrease rate of body weight [2, 21]: 8.0%; Body Weight, mean value [2, 22]: 19.12 g; Decrease rate of body weight [2, 22]: 10.2%; Body Weight, mean value [2, 23]: 19.19 g; Decrease rate of body weight [2, 23]: 8.8%; Body Weight, mean value [2, 24]: 18.30 g; Decrease rate of body weight [2, 24]: 11.5%; Body Weight, mean value [2, 25]: 19.67 g; Decrease rate of body weight [2, 25]: 8.0%; Body Weight, mean value [2, 26]: 19.12 g; Decrease rate of body weight [2, 26]: 10.2%; Body Weight, mean value [2, 27]: 19.65 g; Decrease rate of body weight [2, 27]: 6.6%; Body Weight, mean value [2, 28]: 17.95 g; Decrease rate of body weight [2, 28]: 13.1%; Body Weight, mean value [2, 29]: 19.31 g; Decrease rate of body weight [2, 29]: 9.7%; Body Weight, mean value [2, 30]: 19.12 g; Decrease rate of body weight [2, 30]: 10.2%; Body Weight, mean value [2, 31]: 20.02 g; Decrease rate of body weight [2, 31]: 4.8%; Body Weight, mean value [2, 32]: 18.29 g; Decrease rate of body weight [2, 32]: 11.5%; Body Weight, mean value [2, 33]: 19.04 g; Decrease rate of body weight [2, 33]: 10.5%; Body Weight, mean value [2, 34]: 19.04 g; Decrease rate of body weight [2, 34]: 10.5%; Body Weight, mean value [2, 35]: 19.87 g; Decrease rate of body weight [2, 35]: 5.6%; Body Weight, mean value [2, 36]: 18.12 g; Decrease rate of body weight [2, 36]: 12.3%; Body Weight, mean value [2, 37]: 18.80 g; Decrease rate of body weight [2, 37]: 11.7%; Body Weight, mean value [2, 38]: 18.94 g; Decrease rate of body weight [2, 38]: 10.7%; stability after dissolving in normal saline: the resulted solution is stable
